Measured values as given in the NIST ThermoML archive (doi:10.1021/je060116w).
Numbers after ± are expanded uncertainties.

Settings: Hot wire method

SMILES: FC(F)CC(F)(F)F [1,1,1,3,3-pentafluoropropane]
- thermal conductivity (244.4 K, Liquid): 0.1044 ± 0.0021 W/m/K
- thermal conductivity (244.64 K, Liquid): 0.1043 ± 0.0021 W/m/K
- thermal conductivity (244.9 K, Liquid): 0.1041 ± 0.0021 W/m/K
- thermal conductivity (254.41 K, Liquid): 0.1014 ± 0.0021 W/m/K
- thermal conductivity (254.67 K, Liquid): 0.1014 ± 0.0021 W/m/K
- thermal conductivity (254.94 K, Liquid): 0.1013 ± 0.0021 W/m/K
- thermal conductivity (264.37 K, Liquid): 0.09835 ± 0.002 W/m/K
- thermal conductivity (264.64 K, Liquid): 0.0982 ± 0.002 W/m/K
- thermal conductivity (264.91 K, Liquid): 0.0981 ± 0.002 W/m/K
- thermal conductivity (274.38 K, Liquid): 0.09519 ± 0.0019 W/m/K
- thermal conductivity (274.66 K, Liquid): 0.09525 ± 0.0019 W/m/K
- thermal conductivity (274.94 K, Liquid): 0.09497 ± 0.0019 W/m/K
- thermal conductivity (284.51 K, Liquid): 0.09219 ± 0.0019 W/m/K
- thermal conductivity (284.8 K, Liquid): 0.09211 ± 0.0019 W/m/K
- thermal conductivity (285.08 K, Liquid): 0.09178 ± 0.0019 W/m/K
- thermal conductivity (294.42 K, Liquid): 0.08894 ± 0.0018 W/m/K
- thermal conductivity (294.67 K, Liquid): 0.08895 ± 0.0018 W/m/K
- thermal conductivity (294.99 K, Liquid): 0.08862 ± 0.0018 W/m/K
- thermal conductivity (296.14 K, 121.3 kPa, Gas): 0.01256 ± 0.00032 W/m/K
- thermal conductivity (297.06 K, 121.3 kPa, Gas): 0.01257 ± 0.00032 W/m/K
- thermal conductivity (297.76 K, 121.3 kPa, Gas): 0.01267 ± 0.00033 W/m/K
- thermal conductivity (304.46 K, Liquid): 0.08598 ± 0.0018 W/m/K
- thermal conductivity (304.72 K, Liquid): 0.08564 ± 0.0018 W/m/K
- thermal conductivity (305.08 K, Liquid): 0.08542 ± 0.0018 W/m/K
- thermal conductivity (305.45 K, 123.2 kPa, Gas): 0.01342 ± 0.00044 W/m/K
- thermal conductivity (305.99 K, 123.2 kPa, Gas): 0.01345 ± 0.00035 W/m/K
- thermal conductivity (306.63 K, 123.2 kPa, Gas): 0.01352 ± 0.00038 W/m/K
- thermal conductivity (314.17 K, Liquid): 0.0826 ± 0.0017 W/m/K
- thermal conductivity (314.45 K, Liquid): 0.08276 ± 0.0017 W/m/K
- thermal conductivity (314.53 K, Liquid): 0.08259 ± 0.0017 W/m/K
- thermal conductivity (314.76 K, Liquid): 0.08269 ± 0.0017 W/m/K
- thermal conductivity (314.8 K, Liquid): 0.08262 ± 0.0017 W/m/K
- thermal conductivity (315.13 K, Liquid): 0.08252 ± 0.0017 W/m/K
- thermal conductivity (315.17 K, Liquid): 0.08234 ± 0.0017 W/m/K
- thermal conductivity (315.24 K, 203.4 kPa, Gas): 0.01425 ± 0.00036 W/m/K
- thermal conductivity (315.99 K, 203.4 kPa, Gas): 0.01428 ± 0.00036 W/m/K
- thermal conductivity (316.55 K, 203.4 kPa, Gas): 0.01435 ± 0.00036 W/m/K
- thermal conductivity (324.46 K, Liquid): 0.0795 ± 0.0016 W/m/K
- thermal conductivity (324.78 K, Liquid): 0.07945 ± 0.0016 W/m/K
- thermal conductivity (325.15 K, Liquid): 0.07953 ± 0.0016 W/m/K
- thermal conductivity (325.29 K, 203.3 kPa, Gas): 0.0152 ± 0.00038 W/m/K
- thermal conductivity (326.02 K, 203.3 kPa, Gas): 0.01524 ± 0.00038 W/m/K
- thermal conductivity (326.56 K, 203.3 kPa, Gas): 0.01527 ± 0.00038 W/m/K
- thermal conductivity (334.52 K, Liquid): 0.07649 ± 0.0016 W/m/K
- thermal conductivity (334.84 K, Liquid): 0.0765 ± 0.0016 W/m/K
- thermal conductivity (335.21 K, Liquid): 0.0765 ± 0.0016 W/m/K
- thermal conductivity (335.28 K, 291.6 kPa, Gas): 0.01607 ± 0.0004 W/m/K
- thermal conductivity (335.96 K, 291.6 kPa, Gas): 0.0161 ± 0.0004 W/m/K
- thermal conductivity (336.77 K, 291.6 kPa, Gas): 0.01611 ± 0.0004 W/m/K
- thermal conductivity (344.59 K, Liquid): 0.07365 ± 0.0015 W/m/K
- thermal conductivity (344.93 K, Liquid): 0.07351 ± 0.0015 W/m/K
- thermal conductivity (345.15 K, 303 kPa, Gas): 0.01704 ± 0.00042 W/m/K
- thermal conductivity (345.31 K, Liquid): 0.07356 ± 0.0015 W/m/K
- thermal conductivity (345.77 K, 303 kPa, Gas): 0.0171 ± 0.00043 W/m/K
- thermal conductivity (346.5 K, 303 kPa, Gas): 0.01714 ± 0.00043 W/m/K
- thermal conductivity (354.66 K, Liquid): 0.07059 ± 0.0014 W/m/K
- thermal conductivity (354.97 K, 738.2 kPa, Gas): 0.01782 ± 0.00044 W/m/K
- thermal conductivity (355 K, Liquid): 0.07059 ± 0.0014 W/m/K
- thermal conductivity (355.04 K, 579.7 kPa, Gas): 0.01778 ± 0.00044 W/m/K
- thermal conductivity (355.37 K, Liquid): 0.07058 ± 0.0014 W/m/K
- thermal conductivity (355.53 K, 738.2 kPa, Gas): 0.01786 ± 0.00044 W/m/K
- thermal conductivity (355.63 K, 579.7 kPa, Gas): 0.01782 ± 0.00044 W/m/K
- thermal conductivity (356.17 K, 738.2 kPa, Gas): 0.0179 ± 0.00044 W/m/K
- thermal conductivity (356.29 K, 579.7 kPa, Gas): 0.01791 ± 0.00044 W/m/K
- thermal conductivity (364.67 K, Liquid): 0.06648 ± 0.0014 W/m/K
- thermal conductivity (364.88 K, 954.5 kPa, Gas): 0.01876 ± 0.00046 W/m/K
- thermal conductivity (365.04 K, Liquid): 0.06636 ± 0.0014 W/m/K
- thermal conductivity (365.05 K, 617.9 kPa, Gas): 0.01865 ± 0.00046 W/m/K
- thermal conductivity (365.4 K, 954.5 kPa, Gas): 0.01875 ± 0.00046 W/m/K
- thermal conductivity (365.43 K, Liquid): 0.06604 ± 0.0014 W/m/K
- thermal conductivity (365.61 K, 617.9 kPa, Gas): 0.01873 ± 0.00046 W/m/K
- thermal conductivity (365.96 K, 954.5 kPa, Gas): 0.0189 ± 0.00047 W/m/K
- thermal conductivity (366.24 K, 617.9 kPa, Gas): 0.01878 ± 0.00046 W/m/K
- thermal conductivity (374.69 K, Liquid): 0.06371 ± 0.0013 W/m/K
